Columns and labels:
[1] = molecular target: T1, Catenin beta-1 (Homo sapiens) (UniProt P35222); test: Inhibition of beta-catenin transcriptional activity in human A549 cells after 24 hrs by luciferase reporter assay; format: cell-based; parameters: concentration or dose not given beside the values
T1 sequence (whole entry): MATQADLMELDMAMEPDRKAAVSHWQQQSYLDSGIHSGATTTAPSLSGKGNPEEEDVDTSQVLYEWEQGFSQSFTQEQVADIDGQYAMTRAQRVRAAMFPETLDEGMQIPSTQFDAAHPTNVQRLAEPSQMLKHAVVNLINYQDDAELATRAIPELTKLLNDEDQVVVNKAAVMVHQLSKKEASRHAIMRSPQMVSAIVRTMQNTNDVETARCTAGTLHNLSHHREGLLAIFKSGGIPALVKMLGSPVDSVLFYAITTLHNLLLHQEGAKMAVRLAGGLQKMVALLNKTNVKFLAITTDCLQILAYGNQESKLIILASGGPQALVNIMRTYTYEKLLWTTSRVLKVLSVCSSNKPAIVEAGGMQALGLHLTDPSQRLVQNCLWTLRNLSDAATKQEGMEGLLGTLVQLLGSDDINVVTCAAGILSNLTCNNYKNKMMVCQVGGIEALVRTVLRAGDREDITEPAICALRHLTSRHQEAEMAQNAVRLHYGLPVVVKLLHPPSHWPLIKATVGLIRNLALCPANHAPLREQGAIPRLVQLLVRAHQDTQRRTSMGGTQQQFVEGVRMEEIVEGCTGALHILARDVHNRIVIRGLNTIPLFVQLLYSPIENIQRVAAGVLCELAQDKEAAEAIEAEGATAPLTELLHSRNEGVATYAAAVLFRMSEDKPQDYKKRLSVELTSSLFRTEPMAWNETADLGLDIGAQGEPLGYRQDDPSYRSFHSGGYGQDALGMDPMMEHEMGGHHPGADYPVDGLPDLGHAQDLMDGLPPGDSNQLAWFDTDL

A549 [2] = test: Antiproliferative activity against human A549 cells after 3 days by CCK8 assay; format: functional; parameters: concentration or dose not given beside the values
A549 [3] = test: Induction of apoptosis in human A549 cells assessed as late apoptotic cells at 3 uM after 2 days by annexin V staining-based flow cytometric analysis (reference value: 0.5%); format: functional
A549 [4] = test: Induction of apoptosis in human A549 cells assessed as up regulation of phosphorylated p53 (S46) level at 3 uM incubated for 12 to 24 hrs by Western blot analysis; format: functional, cell-based; details: TDE = time-dependent effect
A549 [5] = test: Induction of apoptosis in human A549 cells assessed as up regulation of phosphorylated p53 (S15) level at 3 uM incubated for 12 to 24 hrs by Western blot analysis; format: functional, cell-based; details: TDE = time-dependent effect
A549 [6] = test: Induction of apoptosis in human A549 cells assessed as live cells at 3 uM after 3 days by annexin V staining-based flow cytometric analysis (reference value: 98%); format: functional
A549 [7] = test: Induction of apoptosis in human A549 cells assessed as late apoptotic cells at 3 uM after 3 days by annexin V staining-based flow cytometric analysis (reference value: 0.5%); format: functional
A549 [8] = test: Induction of apoptosis in human A549 cells assessed as dead cells at 3 uM after 3 days by annexin V staining-based flow cytometric analysis (reference value: 0.2%); format: functional
A549 [9] = test: Induction of apoptosis in human A549 cells assessed as dead cells at 3 uM after 1 day by annexin V staining-based flow cytometric analysis (reference value: 0.2%); format: functional
A549 [10] = test: Induction of apoptosis in human A549 cells assessed as early apoptotic cells at 3 uM after 1 day by annexin V staining-based flow cytometric analysis (reference value: 1.3%); format: functional
A549 [11] = test: Induction of apoptosis in human A549 cells assessed as early apoptotic cells at 3 uM after 3 days by annexin V staining-based flow cytometric analysis (reference value: 1.3%); format: functional
A549 [12] = test: Induction of apoptosis in human A549 cells assessed as dead cells at 3 uM after 2 days by annexin V staining-based flow cytometric analysis (reference value: 0.2%); format: functional
A549 [13] = test: Induction of apoptosis in human A549 cells assessed as up regulation of phosphorylated p53 (S392) level at 3 uM incubated for 12 to 24 hrs by Western blot analysis; format: functional, cell-based; details: TDE = time-dependent effect
A549 [14] = test: Induction of apoptosis in human A549 cells assessed as live cells at 3 uM after 2 days by annexin V staining-based flow cytometric analysis (reference value: 98%); format: functional
A549 [15] = test: Induction of apoptosis in human A549 cells at 3 uM by annexin V staining-based flow cytometric analysis; format: functional, cell-based; details: TDE = time-dependent effect
A549 [16] = test: Induction of apoptosis in human A549 cells assessed as late apoptotic cells at 3 uM after 1 day by annexin V staining-based flow cytometric analysis (reference value: 0.5%); format: functional
A549 [17] = test: Induction of apoptosis in human A549 cells assessed as early apoptotic cells at 3 uM after 2 days by annexin V staining-based flow cytometric analysis (reference value: 1.3%); format: functional
A549 [18] = test: Induction of apoptosis in human A549 cells assessed as live cells at 3 uM after 1 day by annexin V staining-based flow cytometric analysis (reference value: 98%); format: functional

| Compound | Activity [1] [%] | Activity (A549 [2]) | other results |
| --- | --- | --- | --- |
| O=C1CCCc2c1cc1cccn1c2C(=O)c1ccc(Cl)cc1 | 64.5 | 47.73% | – |
| O=C1CCCc2c1cc1cccn1c2C(=O)c1ccccc1 | 67.3 | 55.44% | – |
| N#Cc1cc2cccn2c(C(=O)c2ccc(F)cc2)c1N | 22.2 | 1.51% | – |
| CC(=O)c1cc2cccn2c(C(=O)c2ccc(Cl)cc2)c1C | 52.9 | 79.46% | – |
| N#Cc1cc2cccn2c(C(=O)c2ccc(Cl)cc2)c1N | 13.6 | 2.87% | – |
| CC(=O)c1cc2cccn2c(C(=O)c2ccccc2)c1C | 90.3 | 92.02% | – |
| COc1ccc(C(=O)c2c3c(cc4cccn24)C(=O)CCC3)cc1 | 67.5 | 51.36% | – |
| CCOC(=O)c1c(N)c(C#N)cc2cccn12 | 47 | 85.35% | – |
| Cc1c(C(=O)O)cc2cccn2c1C(=O)c1ccccc1 | 79.1 | 101.93% | – |
| O=C1CCCc2c1cc1cccn1c2C(=O)c1ccc(F)cc1 | 66.2 | 40.94% | – |
| N#Cc1cc2cccn2c(C(=O)c2ccc(OCc3ccccc3)cc2)c1N | 69.1 | 35.05% | – |
| N#Cc1cc2cccn2c(C(=O)c2ccccc2)c1N | 26.2 | 13.75% | – |
| CCOC(=O)c1cc2cccn2c(C(=O)c2ccc(OC)cc2)c1N | 86.4 | 98.46% | – |
| COc1ccc(C(=O)c2c(N)c(C#N)cc3cccn23)cc1 | 7.03 | Dose-dependent effect | Activity (A549 [3]): 9.7%; Activity (A549 [4]): tde; Activity (A549 [5]): tde; Activity (A549 [6]): 39.8%; Activity (A549 [7]): 43.65%; Activity (A549 [2]; record 2): 0%; Activity (A549 [8]): 0.95%; Activity (A549 [9]): 1.15%; Activity (A549 [10]): 8%; Activity (A549 [11]): 15.6%; Activity (A549 [12]): 2.25%; Activity (A549 [13]): tde; Activity (A549 [14]): 73.35%; Activity (A549 [15]): tde; Activity (A549 [16]): 2.3%; Activity (A549 [17]): 14.7%; Activity (A549 [18]): 88.55% |
